The experiment addresses T1, K2P18.1 (TRESK) (Mus musculus, UniProt Q6VV64).
T1 construct: expressed in transfected cells; host or cells: Xenopus oocytes
T1 sequence (Q6VV64 1-394): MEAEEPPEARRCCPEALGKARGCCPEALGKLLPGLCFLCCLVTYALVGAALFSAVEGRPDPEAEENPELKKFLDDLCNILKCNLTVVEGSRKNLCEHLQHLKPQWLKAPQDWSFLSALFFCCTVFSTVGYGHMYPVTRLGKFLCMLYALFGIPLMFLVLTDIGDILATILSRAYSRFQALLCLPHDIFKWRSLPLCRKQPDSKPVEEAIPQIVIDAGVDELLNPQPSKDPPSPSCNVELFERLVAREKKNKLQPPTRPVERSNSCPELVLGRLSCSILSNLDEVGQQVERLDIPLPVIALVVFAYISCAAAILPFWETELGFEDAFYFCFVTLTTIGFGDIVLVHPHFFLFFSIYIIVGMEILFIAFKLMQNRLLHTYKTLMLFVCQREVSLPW
Put plainly: Two-electrode voltage clamp, Xenopus oocytes expressing K2P18.1 (TRESK). It is filed as cell-based, Murine. As to the method:
FIG. 7 ML67-33 is a selective activator of heat- and mechanosensitive K2P channels. a-f, Exemplar I-V curves showing the effect of ML67-33 on a, K2P10.1 (TREK-2), b, K2P4.1 (TRAAK), c, K2P3.1 (TASK-1), d, K2P9.1 (TASK-3), e, K2P5.1 (TASK-2), and f, K2P18.1 (TRESK) measured in Xenopus oocytes in 2 mM [K^+]o pH 7.4. Currents were elicited by a voltage ramp from −150 to 50 mV, from a holding potential of −80 mV. g, Quantification of the effect of ML67-33 on the indicated channels. Data (mean±s.e., n≧6, N≧2) was normalized to basal channel activity and fitted to the Hill equation. […] Error bars indicate s.e., n≧6, N≧2.
Murine K2P channels were cloned into pGEMHE/pMO {Bagriantsev, 2011}, IRES-GFP (Invitrogen), or pYES2-MET25 (high copy 2μ, URA3) {Minor, 1999} for expression in oocytes, HEK-293T cells, and yeast, respectively, using standard molecular biology procedures, and verified by DNA sequencing.
Two-electrode voltage clamp recordings were performed from defolliculated stage V-VI Xenopus oocytes 24-48 hours after injection with 0.015-6.0 ng cRNA, using microelectrodes (0.3-3.0 MΩ) filled with 3M KCl. Data was acquired using the GeneClamp 500B (MDS Analytical Technologies) amplifier controlled by the pClamp software (Molecular Devices), and digitized at 1 kHz using Digidata 1332A (MDS Analytical Technologies). […]
On the technique in general: Two-electrode voltage clamp holds a large cell at a set potential and records current.

With `CC1(C)c2cc(Cl)ccc2N(CCc2nnn[nH]2)c2ccc(Cl)cc21` [ML67-33, 2,7-dichloro-9,9-dimethyl-10-[2-(1H-tetrazol-5-yl)ethyl]acridine], for the setting “applied at 100 μM”, the “functional effect (in words)” value is listed as “little or no functional effects”. In addition, the “Emax (fold)” value (at 100 μM (FIG. 7 legend), ** in Table 1) amounted to 0.9±0.1 fold.
